These results are taken from paper PMC3046873 (ACS medicinal chemistry letters, 2011).

Structures are written as SMILES.

Series [1] deals with Plasmodium falciparum. As to the kind of experiment: Activity against the malaria parasite Plasmodium falciparum. The following applies: fold versus 1.
Series [2] deals with Plasmodium falciparum. The following applies: cited from earlier work.
For series [3] the following is noted: background statement, no reference given, cited from earlier work.

Consider `O=CN(O)CCC(c1ccc(Cl)c(Cl)c1)P(=O)(O)O` (stereo not shown) [Compound 8], for which, in series [1], the “increased activity against Plasmodium falciparum relative to 1” value is recorded as above 10 ×. Moreover, in series [2], the EC50 is 90 nM.

With `O=CN(O)CCCP(=O)(O)O` [Compound 1, Fosmidomycin], the oral availability result in series [3] is “poor”. Further, the half-life in plasma in series [3] (plasma) is ~ 1 h.

One may read the EC50 as the concentration at which the effect is half-maximal.
